Nine compounds from patent US20040138301A1, “Chemical uncouplers for the treatment of obesity” (priority 2002, published 2004) can be followed below.

In one experiment the test system is isolated mitochondria. Put plainly: Assay (II): effect of chemical uncouplers on mitochondrial respiration using isolated mitochondria (oxygen consumption). The class given is biochemical. How it is done:
Assay (II)—The Effect of Chemical Uncouplers on Mitochondrial Respiration Using Isolated Mitochondria.
This assay is used to investigate if the increase in glucose utilisation caused by the test compounds observed in the glucose utilisation assay is due to an increase in the respiration of the mitochondria. This is done by measuring oxygen consumption in isolated mitochondria.
A Clark oxygen electrode is used to determine the oxygen consumption. The isolated mitochondria are added to medium containing oxygen and nutrients (e.g. Succinate) and the rate of oxygen consumptions is measured, when stabilized a small amount of ADP is added to increase the respiration and an increase in the rate of oxygen consumption is measured. When the rate of oxygen consumption again has stabilized the test compound is added and a further increase in oxygen consumption is seen. This experiment is done with and without the addition of oligomycin which is an inhibitor of the ATP-synthase. Finally, the test compound is examined without adding ADP. If the test compound stimulates the rate of oxygen consumption in all setups, it is regarded as a chemical uncoupler.

Another experiment has as its system FSK-4 cells. Put plainly: Assay (IV): Glucose utilisation in FSK-4 cells. As to conditions: FSK-4 cells; for EC50: glucose utilisation, 24 hours incubation, read-out: FSK4 EC50; for Emax: maximal efficacy relative to FCCP, read-out: FSK4 Emax (% of FCCP). The class given is cell-based.

`N#CC(C#N)=NNc1ccc(OC(F)(F)F)cc1` [Example 27, Carbonylcyanide p-Trifluoromethoxy-Phenylhydrazone, reference compound]: the “Mito State-4” value with isolated mitochondria is on record as “Ok”. In the experiment on FSK-4 cells, the EC50 was 1000 nM and the Emax was found to be 100%.

For `N#CC(C#N)=Cc1c[nH]c2ccc(Cl)cc12` [Example 30, 2-((5-Chloro-1H-Indol-3-Yl)Methylene)Malononitrile], the “Mito State-4” value in the experiment with isolated mitochondria is given as “Ok”. In the experiment on FSK-4 cells, the EC50 was 50000 nM and the maximal effect (Emax) amounted to 100%.

As for `N#CC(C#N)=Cc1c(Cl)[nH]c2ccccc12` [Example 34, 2-(2-Chloro-1H-Indol-3-Ylmethylene)-Malononitrile], in the experiment with isolated mitochondria, the “Mito State-4” value was “Ok”. Moreover, in the experiment with FSK-4 cells, the EC50 was 400 nM and the maximal effect (Emax) is 90%.

`Cc1c(Br)cc(C(C)(C)C)c(O)c1C(=O)Nc1ccc([N+](=O)[O-])cc1Cl` [Example 37, 3-Bromo-5-Tert-Butyl-N-(2-Chloro-4-Nitro-Phenyl)-6-Hydroxy-2-Methyl-Benzamide]: the “Mito State-4” value in the experiment with isolated mitochondria is “Ok”. In addition, in the experiment on FSK-4 cells, the EC50 was 30 nM and the Emax was found to be 110%.

For `Cc1c(Cl)cc(C(C)(C)C)c(O)c1C(=O)Nc1ccc([N+](=O)[O-])cc1C(F)(F)F` [Example 50, 3-Tert-Butyl-5-Chloro-2-Hydroxy-6-Methyl-N-(4-Nitro-2-Trifluoromethyl-Phenyl)-Benzamide], the “Mito State-4” value in the experiment on isolated mitochondria is given as “Ok”. In addition, in the experiment on FSK-4 cells, the EC50 was under 30 nM and the Emax amounted to 75%.

Regarding `Cc1cc(C(C#N)c2ccc(Cl)cc2)c(Cl)cc1NC(=O)c1c(C)c(Br)cc(C(C)(C)C)c1O` (stereo not drawn) [Example 56, 3-Bromo-5-Tert-Butyl-N-{5-Chloro-4-[(4-Chloro-Phenyl)-Cyano-Methyl]-2-Methyl-Phenyl}-6-Hydroxy-2-Methyl-Benzamide], the “Mito State-4” value in the experiment on isolated mitochondria is on record as “Ok”. In addition, in the experiment on FSK-4 cells, the EC50 stood at 8000 nM and the Emax stood at 105%.

As to `Cc1c(Br)cc(C(C)(C)C)c(O)c1C(=O)Nc1ccc([N+](=O)[O-])cc1C(F)(F)F` [Example 58, 3-Bromo-5-Tert-Butyl-6-Hydroxy-2-Methyl-N-(4-Nitro-2-Trifluoromethyl-Phenyl)-Benzamide], the “Mito State-4” value with isolated mitochondria is listed as “Ok”. Moreover, in the experiment on FSK-4 cells, the EC50 is under 30 nM and the Emax came to 100%.

For the compound `CC(=C(C#N)C#N)c1cc(C(C)(C)C)c(O)c(C(C)(C)C)c1` [Example 75, 2-[1-(3,5-Di-Tert-Butyl-4-Hydroxy-Phenyl)-Ethylidene]-Malononitrile], in the experiment with isolated mitochondria, the “Mito State-4” value is “Ok”. Further, in the experiment on FSK-4 cells, the EC50 amounted to 700 nM and the Emax stood at 75%.

With `CC(C)(C)c1cc(/C=C(\C#N)c2ccc([N+](=O)[O-])cc2)cc(C(C)(C)C)c1O` [Example 77, 3-(3,5-Di-Tert-Butyl-4-Hydroxy-Phenyl)-2-(4-Nitro-Phenyl)-Acrylonitrile], the “Mito State-4” value with isolated mitochondria is listed as “Ok”. In addition, in the experiment on FSK-4 cells, the EC50 was 1000 nM and the Emax turned out to be 110%.
